Converted amounts (≈) assume the structure as drawn.
Assays:
Assay type in all cases: functional
Staphylococcus aureus [1] = experiment: In vitro inhibition of growth of methicillin-resistant Staphylococcus aureus MRSA ATCC 335893 (clinical isolates)
Staphylococcus aureus [2] = experiment: In vitro inhibition of growth of methicillin-resistant Staphylococcus aureus MRSA 76 (clinical isolates)
Staphylococcus aureus [3] = experiment: In vitro inhibition of growth of methicillin-resistant Staphylococcus aureus MRSA spain 356 (clinical isolates)

| Compound | MIC (Staphylococcus aureus [1]) [µg/mL] | MIC (Staphylococcus aureus [2]) [µg/mL] | MIC (Staphylococcus aureus [3]) [µg/mL] |
| --- | --- | --- | --- |
| COc1nc(CSCCN)c(SC2=C(C(=O)O)N3C(=O)[C@@H](NC(=O)/C(=N\O)c4cccc(N)n4)[C@H]3SC2)s1 | 4 (≈ 6.69 µM) | 4 (≈ 6.69 µM) | 4 (≈ 6.69 µM) |
| NCCSCc1nnsc1SC1=C(C(=O)O)N2C(=O)[C@@H](NC(=O)/C(=N\O)c3cccc(N)n3)[C@H]2SC1 | 1 (≈ 1.76 µM) | 1 (≈ 1.76 µM) | 1 (≈ 1.76 µM) |
| NCCSCc1nnsc1SC1=C(C(=O)O)N2C(=O)[C@@H](NC(=O)/C(=N\O)c3csc(N)n3)[C@H]2SC1 | 1 (≈ 1.74 µM) | 1 (≈ 1.74 µM) | 1 (≈ 1.74 µM) |
| NCCSCc1nc(N)sc1SC1=C(C(=O)O)N2C(=O)[C@@H](NC(=O)/C(=N\O)c3cccc(N)n3)[C@H]2SC1 | 2 (≈ 3.43 µM) | 8 (≈ 13.7 µM) | 4 (≈ 6.86 µM) |
| NCCSCc1nc(Cl)sc1SC1=C(C(=O)O)N2C(=O)[C@@H](NC(=O)/C(=N\O)c3cccc(N)n3)[C@H]2SC1 | 1 (≈ 1.66 µM) | 2 (≈ 3.32 µM) | 1 (≈ 1.66 µM) |
| NCCSCc1csc(SC2=C(C(=O)O)N3C(=O)[C@@H](NC(=O)/C(=N\O)c4cccc(N)n4)[C@H]3SC2)n1 | 1 (≈ 1.76 µM) | 2 (≈ 3.52 µM) | 2 (≈ 3.52 µM) |
| NCCSCc1nc(SCCN)sc1SC1=C(C(=O)O)N2C(=O)[C@@H](NC(=O)/C(=N\O)c3cccc(N)n3)[C@H]2SC1 | 1 (≈ 1.56 µM) | 1 (≈ 1.56 µM) | 1 (≈ 1.56 µM) |
| NCCSCc1cnccc1SC1=C(C(=O)O)N2C(=O)[C@@H](NC(=O)/C(=N\O)c3cccc(N)n3)[C@H]2SC1 | 2 (≈ 3.56 µM) | 1 (≈ 1.78 µM) | 2 (≈ 3.56 µM) |
| C[C@@H](O)[C@H]1C(=O)N2C(C(=O)O)=C(SCCNC=N)C[C@H]12 [IMIPENEM ANHYDROUS] | 32 (≈ 107 µM) | 32 (≈ 107 µM) | 32 (≈ 107 µM) |
| NCCSc1nccnc1SC1=C(C(=O)O)N2C(=O)[C@@H](NC(=O)/C(=N\O)c3cccc(N)n3)[C@H]2SC1 | 2 (≈ 3.65 µM) | 2 (≈ 3.65 µM) | 2 (≈ 3.65 µM) |
| NCCSc1nsc(SC2=C(C(=O)O)N3C(=O)[C@@H](NC(=O)/C(=N\O)c4cccc(N)n4)[C@H]3SC2)n1 | 2 (≈ 3.61 µM) | 2 (≈ 3.61 µM) | 2 (≈ 3.61 µM) |
| NCCSCc1nsc(SC2=C(C(=O)O)N3C(=O)[C@@H](NC(=O)/C(=N\O)c4cccc(N)n4)[C@H]3SC2)n1 | 2 (≈ 3.52 µM) | 4 (≈ 7.03 µM) | 4 (≈ 7.03 µM) |
| Cc1nc(CSCCN)c(SC2=C(C(=O)O)N3C(=O)[C@@H](NC(=O)/C(=N\O)c4cccc(N)n4)[C@H]3SC2)s1 | 2 (≈ 3.44 µM) | 2 (≈ 3.44 µM) | 2 (≈ 3.44 µM) |
| NCCSCc1ccccc1SC1=C(C(=O)O)N2C(=O)[C@@H](NC(=O)/C(=N\O)c3cccc(N)n3)[C@H]2SC1 | 1 (≈ 1.78 µM) | 1 (≈ 1.78 µM) | 1 (≈ 1.78 µM) |
| NCCSc1nccc(SC2=C(C(=O)O)N3C(=O)[C@@H](NC(=O)/C(=N\O)c4cccc(N)n4)[C@H]3SC2)n1 | 8 (≈ 14.6 µM) | 16 (≈ 29.2 µM) | 16 (≈ 29.2 µM) |
| NCCSCc1cnccc1SC1=C(C(=O)O)N2C(=O)[C@@H](NC(=O)/C(=N\O)c3nc(N)sc3Cl)[C@H]2SC1 | 1 (≈ 1.66 µM) | 1 (≈ 1.66 µM) | 1 (≈ 1.66 µM) |
| NCCSCc1ncsc1SC1=C(C(=O)O)N2C(=O)[C@@H](NC(=O)/C(=N\O)c3cccc(N)n3)[C@H]2SC1 | 1 (≈ 1.76 µM) | 2 (≈ 3.52 µM) | 2 (≈ 3.52 µM) |
| NCCCSc1nsc(SC2=C(C(=O)O)N3C(=O)[C@@H](NC(=O)/C(=N\O)c4cccc(N)n4)[C@H]3SC2)n1 | 2 (≈ 3.52 µM) | 2 (≈ 3.52 µM) | 2 (≈ 3.52 µM) |
| NCCSc1cncc(SC2=C(C(=O)O)N3C(=O)[C@@H](NC(=O)/C(=N\O)c4cccc(N)n4)[C@H]3SC2)n1 | 8 (≈ 14.6 µM) | 16 (≈ 29.2 µM) | 16 (≈ 29.2 µM) |

— ChEMBL document CHEMBL1134814, “New anti-MRSA cephalosporins with a basic aminopyridine at the C-7 position” (2001)
